Test results taken from patent US20060183670A1, “Autoantigen composition” (priority 2001, published 2006).

How the values were obtained:
[1] = tested on: NOD scid/scid mice; test: Adoptive transfer of splenocytes from vaccinated NOD mice into NOD scid/scid mice; type: in vivo; settings: for effect on incidence of diabetes in NOD scid/scid adoptive transfer model (in words): antigen in IFA; for scid/scid recipient mice that became diabetic: antigen in IFA sc. to NOD donors at 3, 5 and 7 weeks, splenocytes cotransferred with untreated NOD splenocytes, by the 75th day after adoptive transfer, 16 mice/group
Protocol: To test the efficacy of autoantigens in IFA, NOD mice were vaccinated with human recombinant GAD65 (300 μg/mice) in IFA (total volume 0.1 ml), human insulin B-chain (20.1 μg/mice) in IFA (total volume 0.1 ml) and sham protein (Lysozyme, 200 μg/mice) in IFA (total volume 0.1 ml) sc. in the inguinal areas at 3, 5 and 7 weeks of age. At 9 weeks of age the treated mice were sacrificed and their splenocytes (1.0×10^7 cells) were cotransfered with splenocytes from 9 weeks old untreated NOD mice (1.0×10^7 cells) into 9-11 weeks old NOD scid/scid mice (16 mice/group; total 2.0×10^7 cells/mice). Control group received splenocytes (2.0×10^7 cells/mice) from untreated NOD mice.

[2] = tested on: NOD mice; test: Histological insulitis grading of pancreases of vaccinated NOD mice; type: in vivo; settings: antigen in IFA; for mean insulitis score: 0-4 scale, pancreases at the time of adoptive transfer (9 weeks of age)
Protocol: Histological studies were performed on the pancreases of the vaccinated mice at the time of adoptive transfer.

[3] = tested on: mice; settings: mouse, in vivo
Description: In our animal study where we used IFA with human insulin B-chain or with human GAD65 protein, the mice were carefully observed for any adverse effect.

[4] = tested on: NOD mice; settings: cited from earlier work
[5] = tested on: human; settings: pilot human trial; Keller et al. 1993; cited from earlier work

Substance | effect on incidence of diabetes in NOD scid/scid adoptive transfer model (in words) [1] | scid/scid recipient mice that became diabetic [1] | mean insulitis score [2] | further results
GAD65: Human recombinant GAD65, 585 amino acid β-cell autoantigen (SEQ ID NO:2), given in IFA | significantly reduces the incidence of diabetes | 4/16 | 1.31 | effect on insulitis in NOD mice (in words) [2]: reduced insulitis; adverse effects, general and local [3]: well tolerated without any detectable side effects; Th1/Th2 balance ([4]; nasal administration, Tian et al. 1996): change in Th1/Th2 balance in favor of Th2 ‘protective’ cells response
Insulin: β-cell specific major protein, moderately immunogenic when used alone |  |  |  | development of diabetes mellitus [5]: delaying the development of diabetes mellitus
Lysozyme [reference compound] | not effective | all | 2.64 | 
human recombinant insulin B-chain: Literature recombinant human insulin B-chain given in IFA (Ramiya et al.) [reference compound] |  |  |  | cytokine pattern in NOD mice islets ([4]; in IFA, Ramiya et al. 1996): Th2 cytokine pattern
